Data taken from US9062313B2, “Gem-difluorinated C-isopropylgalactoside derivates” (TFCHEM, priority 2011, dated 2015).

What was measured:
[1] = test system: expression of Green Fluorescent Protein UV (GFPuv) in BLR(DE3) E. coli; test: Recombinant GFPuv protein production, total and soluble fractions (SDS-PAGE densitometry); assay type: cell-based, Escherichia coli; details: inducer 0.1 mM, 0.05 mM and 0.01 mM
Protocol: Properties: MW: 27 763 Da. Theoretical pI: 6.13—Theoretical Absorption coefficient: 0.788—Number of Cys: 2 Construction of One Expression Strain: • Construct GFPUV-pET30b/3 was transformed into BLR(DE3) E. coli expression strain. • Cultures were performed from one single colony in a semi-defined Riesenberg medium in order to produce a Research Cell Bank (20 tubes of 1 mL stored at <−70° C.). Pre-cultures and Cultures Conditions: • Pre-cultures and cultures were performed in semi-defined Riesenberg medium, 50 mL and 250 mL flasks-scale, respectively. […] Analysis by SDS-PAGE Stained by Coomassie Blue • Sample: 10 μl deposit of suspension at equivalent OD600nm=8. • The proteins were separated by SDS-PAGE 4-12%, and then colored by Coomassie blue. • Quantitative measurement by densitometry and comparison with standard range of proteins.
Quantity of proteins (μg) was plotted as a function of time representing the kinetic of induction of GFPuv expression for each inducer and/or concentration tested.
The induction profile of GFPuv was evaluated for both IPTG and T-18 inducers at different concentrations. […]

[2] = test system: β-galactosidase expression (lacZ promoter); test: Induction of β-galactosidase expression in E. coli (ONPG assay, OD420nm); assay type: cell-based, Escherichia coli; details: for effectiveness as inducer compared with IBCG / effectiveness as inducer compared with IPTG: during 3 h following the substrate addition; for efficacy of induction overtime: up to 8 h following substrate addition; for induction of β-galactosidase expression/transcription: inducer 0.5 mM, until 3 hours after addition of ONPG substrate
Protocol: (§1) The bacteria strain E. coli XL1—Blue MRF′ Electroporation-competent cells (Stratagene #200158) containing pGEM-T vector was grown in LB medium adding with appropriate antibiotic (ampicillin). The starter culture was grown by inoculating plasmid containing cells in LB medium added with ampicillin and incubated overnight at 37° C. with shaking at 250 rpm. When culture reached the desired OD, the induction was started.
For each assay the starter culture was appropriately diluted (OD600=0.2) in 1.5 mL of LB medium with 3 μg/mL of ampicillin
β-galactosidase expression is then induced by addition of either IPTG (Sigma I1284), IBCG or Compounds T-16 and T-18 to final concentrations of 0.5 or 1 mM. After this induction the cultures are incubated for 3 hours at 37° C. with shaking at 250 rpm.
The β-galactosidase activity was assayed by adding 0.5 mg/mL of the ortho 2-nitrophenyl-β-D-galactopyranoside (ONPG Sigma N1127) as chromogenic substrate. ONPG is hydrolyzed by β-galactosidase to yield galactose and ortho-Nitrophenol, which is yellow in color and absorbs light at 420 nm. The intensity of the color can be used to determine the β-galactosidase activity.
Absorbance was measured (OD420nm) every hour during 8 hours after the substrate addition. The absorbance was plotted as a function of time representing the induction kinetic of β-galactosidase activity for each inducer and each concentration tested. Assays were performed as triplicate.

E. coli culture = test: Toxicity to bacteria (absorbance of bacteria culture, OD600nm); assay type: cell-based, Escherichia coli; details: 0.5 mM; for toxicity throughout the assay: 8 hours, versus negative control without inducer
Protocol: as §1
The absorbance of the bacteria culture was measured (OD600nm) every hour during 8 hours after the substrate addition. The absorbance was plotted as a function of time representing the toxicity for each inducer. The negative control (no toxicity) consists on an assay without inducer. Assays were performed as triplicate.

[3] = Stability of compounds in D2O solution at room temperature, followed by 19F NMR and 1H NMR; assay type: physicochemical
Protocol: Compounds T-16 and T-18 were dissolved in D2O and the resulting solutions were kept at room temperature. The stability of the compound was studied by ^19F NMR and ^1H NMR.

SMILES	final quantity of GFPuv produced (total fraction) compared with IPTG [1]	effectiveness relative to IPTG ([2]; 0.5 mM, 8 h following substrate addition)	effectiveness as inducer compared with IBCG ([2]; 0.5 mM)	effectiveness as inducer compared with IPTG ([2]; 0.5 mM)	efficacy of induction overtime ([2]; 0.5 mM)	induction of β-galactosidase expression/transcription [2]	toxicity compared with IPTG (E. coli culture; after 3 h up to 8 h following the substrate addition)	toxicity compared with IPTG (E. coli culture; until 3 h following the substrate addition)	degradation in solution (stability by 19F NMR and 1H NMR) ([3]; 24 weeks follow up)	toxicity throughout the assay (E. coli culture)	degradation in solution (stability by 19F NMR and 1H NMR) ([3]; 10 weeks follow up)
CC(C)C(F)(F)[C@@H]1O[C@H](CO)[C@H](O)[C@H](O)[C@H]1O [Compound T-18]	higher than with IPTG	at least 3 times	more effective inducers than IBCG	as effective inducers than IPTG	remains effective overtime	efficient inducers	less toxic than IPTG	as toxic as IPTG	without any degradation		
CC(C)(O)C(F)(F)[C@@H]1O[C@H](CO)[C@H](O)[C@H](O)[C@H]1O [Compound T-16]			more effective inducers than IBCG	as effective inducers than IPTG		efficient inducers				medium toxicity	without any degradation
CC(C)S[C@@H]1O[C@H](CO)[C@H](O)[C@H](O)[C@H]1O [IPTG, isopropyl-β-D -thiogalactopyranoside, reference compound]					efficacy decrease					medium toxicity	
